Drawing on ChEMBL document CHEMBL3608296, “Synthesis of sulfonamides incorporating piperazinyl-ureido moieties and their carbonic anhydrase I, II, IX and XII inhibitory activity” (Bioorg Med Chem Lett, 2015), this text covers Ki and inhibition for 25 compounds.

Usually Ki stands for the equilibrium dissociation constant of an inhibitor or competing ligand from its target. For orientation: inhibition means the percentage by which the read-out fell short of the control. Read a high inhibition as a response far below the control.

Each structure is given as a SMILES string.

Assay [1] deals with T1, Carbonic anhydrase 9 (Homo sapiens, UniProt Q16790).
Description: Inhibition of human carbonic anhydrase 9 preincubated for 15 mins by stopped flow CO2 hydration method
The target in assay [2] is T1, Carbonic anhydrase 9. Particulars: at 0.1 µM.
Description: Inhibition of human carbonic anhydrase 9 at 10^-7 M preincubated for 15 mins by stopped flow CO2 hydration method relative to control
Assay [3] concerns the target Carbonic anhydrase 12 (Homo sapiens) (UniProt O43570). Particulars: at 0.001 µM.
Description: Inhibition of human carbonic anhydrase 12 at 10^-9 M preincubated for 15 mins by stopped flow CO2 hydration method relative to control
Assay [4] has the same target. Particulars: at 0.01 µM.
Description: Inhibition of human carbonic anhydrase 12 at 10^-8 M preincubated for 15 mins by stopped flow CO2 hydration method relative to control
Assay [5] concerns the target T1, Carbonic anhydrase 9. Particulars: at 0.001 µM.
Description: Inhibition of human carbonic anhydrase 9 at 10^-9 M preincubated for 15 mins by stopped flow CO2 hydration method relative to control
For assay [6], the target named is Carbonic anhydrase 12 (Homo sapiens) (UniProt O43570). Particulars: at 0.1 µM.
Chain of Carbonic anhydrase 12 (Homo sapiens) (O43570 whole entry): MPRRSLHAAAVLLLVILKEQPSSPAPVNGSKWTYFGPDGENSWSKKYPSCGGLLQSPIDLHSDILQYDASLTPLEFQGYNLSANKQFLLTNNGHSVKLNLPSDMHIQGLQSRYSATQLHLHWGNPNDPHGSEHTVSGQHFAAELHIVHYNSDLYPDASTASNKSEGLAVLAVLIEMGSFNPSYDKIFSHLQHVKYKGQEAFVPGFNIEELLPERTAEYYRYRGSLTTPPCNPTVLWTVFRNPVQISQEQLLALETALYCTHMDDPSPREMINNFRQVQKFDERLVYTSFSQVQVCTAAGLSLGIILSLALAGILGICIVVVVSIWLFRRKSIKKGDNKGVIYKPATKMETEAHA
Description: Inhibition of human carbonic anhydrase 12 at 10^-7 M preincubated for 15 mins by stopped flow CO2 hydration method relative to control
Assay [7] has the same target. The following applies: at 1 µM.
Description: Inhibition of human carbonic anhydrase 12 at 10^-6 M preincubated for 15 mins by stopped flow CO2 hydration method relative to control
Assay [8] deals with T1, Carbonic anhydrase 9. Particulars: at 0.01 µM.
Description: Inhibition of human carbonic anhydrase 9 at 10^-8 M preincubated for 15 mins by stopped flow CO2 hydration method relative to control
The target of assay [9] is T1, Carbonic anhydrase 9. The following applies: at 1 µM.
Description: Inhibition of human carbonic anhydrase 9 at 10^-6 M preincubated for 15 mins by stopped flow CO2 hydration method relative to control
In another assay the target is Carbonic anhydrase 1 (Homo sapiens, UniProt P00915). The assay can be described thus: Inhibition of human carbonic anhydrase 1 preincubated for 15 mins by stopped flow CO2 hydration method.
Chain of Carbonic anhydrase 1 (P00915 whole entry): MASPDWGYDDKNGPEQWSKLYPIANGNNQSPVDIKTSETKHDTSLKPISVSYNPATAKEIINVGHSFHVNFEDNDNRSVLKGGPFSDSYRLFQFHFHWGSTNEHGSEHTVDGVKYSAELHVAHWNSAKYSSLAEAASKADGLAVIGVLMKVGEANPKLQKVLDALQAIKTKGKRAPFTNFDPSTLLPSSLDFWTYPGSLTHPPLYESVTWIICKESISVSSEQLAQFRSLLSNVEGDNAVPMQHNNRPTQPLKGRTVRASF

At Carbonic anhydrase 9 [1], `NS(=O)(=O)c1ccc(NC(=O)N2CCN(c3ccc(C(F)(F)F)cn3)CC2)cc1` displayed a Ki of 0.514 µM.
Still for that read-out and setting: the same measure for `COc1cccc(N2CCN(C(=O)Nc3ccc(S(N)(=O)=O)cc3)CC2)c1`: 0.0396 µM; for `NS(=O)(=O)c1ccc(NC(=O)N2CCN(c3ncccc3C(F)(F)F)CC2)cc1`: 0.28 µM.
Consider `COc1ccccc1N1CCN(C(=O)Nc2ccc(S(N)(=O)=O)cc2)CC1`, for which, on Carbonic anhydrase 9 [1], the Ki was 0.237 µM.
On the same count and under the same terms, the value for `N#Cc1cccnc1N1CCN(C(=O)Nc2ccc(S(N)(=O)=O)cc2)CC1` was 0.202 µM.
Turning to `NS(=O)(=O)c1ccc(NC(=O)N2CCN(C(=O)COc3ccc(Cl)cc3Cl)CC2)cc1`, the inhibition against Carbonic anhydrase 9 [2] amounted to 51%; in assay [3] it was 29%; in assay [4], 43%; at Carbonic anhydrase 9 [5], 33%; in assay [6] it was 48%; in assay [7], 51%. In addition, the inhibition against Carbonic anhydrase 9 [8] is 49%; on Carbonic anhydrase 9 [9], 56%.
In the case of `NS(=O)(=O)c1ccc(NC(=O)N2CCN(C(=O)Cc3ccc(Cl)cc3Cl)CC2)cc1`, the inhibition is 49% against Carbonic anhydrase 9 [2]; 34% in assay [3]; 42% in assay [4]; 38% at Carbonic anhydrase 9 [5]; 48% in assay [6]; 51% in assay [7]. Further, the inhibition on Carbonic anhydrase 9 [8] is 48%; at Carbonic anhydrase 9 [9], 54%.
On Carbonic anhydrase 9 [1], `NS(=O)(=O)c1ccc(NC(=O)N2CCN(c3ccc(Cl)c(Cl)c3)CC2)cc1` yielded a Ki of 0.268 µM.
As to `NS(=O)(=O)c1ccc(NC(=O)N2CCN(C(=O)Cc3ccc(Cl)cc3)CC2)cc1`, the inhibition came out at 47% against Carbonic anhydrase 9 [2]; 34% in [3]; 40% in [4]; 37% at Carbonic anhydrase 9 [5]; 47% in assay [6]; 51% in assay [7]. Besides, the inhibition against Carbonic anhydrase 9 [8] is 45%; against Carbonic anhydrase 9 [9], 51%.
At Carbonic anhydrase 9 [1], `NS(=O)(=O)c1ccc(NC(=O)N2CCN(c3ccccc3)CC2)cc1` yielded a Ki of 0.0087 µM.
Still for that read-out and setting: the same measure for `CC(C)(C)c1ccc(N2CCN(C(=O)Nc3ccc(S(N)(=O)=O)cc3)CC2)cc1`: 0.129 µM; for `NS(=O)(=O)c1ccc(NC(=O)N2CCN(c3cccc(Cl)c3)CC2)cc1`: 0.233 µM.
Same read-out and setting: the same measure for `NS(=O)(=O)c1ccc(NC(=O)N2CCN(c3ccccn3)CC2)cc1`: 0.487 µM.
In the case of `NS(=O)(=O)c1ccc(NC(=O)N2CCN(c3ccc(Cl)cc3)CC2)cc1`, the results for the Ki on Carbonic anhydrase 1 and at Carbonic anhydrase 9 [1] were above 10 µM and 0.32 µM, respectively.
In turn, `NS(=O)(=O)c1ccc(NC(=O)N2CCN(Cc3ccc(Cl)cc3)CC2)cc1` registered a Ki at Carbonic anhydrase 9 [1] of 0.0396 µM.
With `NS(=O)(=O)c1ccc(NC(=O)N2CCN(C(=O)COc3ccccc3)CC2)cc1`, the inhibition against Carbonic anhydrase 9 [2] turned out to be 53%; in [3], 36%; in assay [4], 46%; on Carbonic anhydrase 9 [5], 22%; in assay [6], 49%; in assay [7], 51%. Further, the inhibition at Carbonic anhydrase 9 [8] was 35%; against Carbonic anhydrase 9 [9], 55%.
With `NS(=O)(=O)c1ccc(NC(=O)N2CCN(c3ccc(F)cc3)CC2)cc1`, at Carbonic anhydrase 9 [1], affinity was put at a Ki of 0.0099 µM.
In turn, `NS(=O)(=O)c1ccc(NC(=O)N2CCN(c3nccc(C(F)(F)F)n3)CC2)cc1` displayed a Ki on Carbonic anhydrase 9 [1] of 0.134 µM.
Take `NS(=O)(=O)c1ccc(NC(=O)N2CCN(C(=O)Cc3ccccc3)CC2)cc1`: the inhibition is 49% against Carbonic anhydrase 9 [2]; 26% in assay [3]; 44% in assay [4]; 38% at Carbonic anhydrase 9 [5]; 47% in assay [6]; 51% in assay [7]. Further, the figures for the inhibition against Carbonic anhydrase 9 [8] and against Carbonic anhydrase 9 [9] were 44% and 54%, respectively.
At Carbonic anhydrase 9 [1], `NS(=O)(=O)c1ccc(NC(=O)N2CCN(Cc3ccccc3)CC2)cc1` yielded a Ki of 0.462 µM.
Take `NS(=O)(=O)c1ccc(NC(=O)N2CCN(C(=O)COc3ccc(Cl)cc3)CC2)cc1`: the inhibition against Carbonic anhydrase 9 [2] came to 48%; in assay [3], 30%; in [4] it was 47%; against Carbonic anhydrase 9 [5], 36%; in assay [6] it was 49%; in assay [7] it was 52%. Moreover, the inhibition at Carbonic anhydrase 9 [8] turned out to be 47%; against Carbonic anhydrase 9 [9] it was 52%.
As to `COc1ccc(N2CCN(C(=O)Nc3ccc(S(N)(=O)=O)cc3)CC2)cc1`, the Ki at Carbonic anhydrase 9 [1] is 0.409 µM.
In the case of `COc1ccc(CC(=O)N2CCN(C(=O)Nc3ccc(S(N)(=O)=O)cc3)CC2)cc1`, the inhibition was determined as 49% at Carbonic anhydrase 9 [2]; 34% in assay [3]; 46% in assay [4]; 36% against Carbonic anhydrase 9 [5]; 49% in [6]; 51% in assay [7]. The results for the inhibition at Carbonic anhydrase 9 [8] and against Carbonic anhydrase 9 [9] were 47% and 55%, respectively.
For the compound `NS(=O)(=O)c1ccc(NC(=O)N2CCN(C(=O)Cc3ccc(O)cc3)CC2)cc1`, the inhibition was 48% at Carbonic anhydrase 9 [2]; 33% in assay [3]; 46% in assay [4]; 34% at Carbonic anhydrase 9 [5]; 49% in assay [6]; 58% in [7]. The inhibition against Carbonic anhydrase 9 [8] was 45%; against Carbonic anhydrase 9 [9], 52%.
`COc1cc(CC(=O)N2CCN(C(=O)Nc3ccc(S(N)(=O)=O)cc3)CC2)cc(OC)c1O`: the inhibition at Carbonic anhydrase 9 [2] turned out to be 52%; in assay [3] it was 34%; in assay [4] it was 45%; against Carbonic anhydrase 9 [5] it was 37%; in [6], 49%; in assay [7] it was 51%. The values for the inhibition at Carbonic anhydrase 9 [8] and at Carbonic anhydrase 9 [9] were 41% and 55%, respectively.
